# In PMC2752672 (Biochemistry, 2009):
# Like-named read-outs stand apart in the source and are kept apart here.
# Experiments:
# KOR [1] = target: T1, KOR (Homo sapiens, UniProt P41145); experiment: biochemical; format: biochemical; details: for EC50: read-out: EC50 c
# KOR [2] = target: T1, KOR; format: binding; details: read-out: Ki a
# KOR [3] = target: T1, KOR; format: binding; details: read-out: Ki b
# C57BL/6J mice = format: in vivo, mouse; details: for baseline startle activity: 120-dB stimulus, all doses; for prepulse-dependent PPI: all prepulse intensities
# KOR [4] = target: T1, KOR; experiment: biochemical; format: binding
# [5] = storage stability of the compound; details: room temperature / prolonged storage
# T1 sequence (P41145 whole entry): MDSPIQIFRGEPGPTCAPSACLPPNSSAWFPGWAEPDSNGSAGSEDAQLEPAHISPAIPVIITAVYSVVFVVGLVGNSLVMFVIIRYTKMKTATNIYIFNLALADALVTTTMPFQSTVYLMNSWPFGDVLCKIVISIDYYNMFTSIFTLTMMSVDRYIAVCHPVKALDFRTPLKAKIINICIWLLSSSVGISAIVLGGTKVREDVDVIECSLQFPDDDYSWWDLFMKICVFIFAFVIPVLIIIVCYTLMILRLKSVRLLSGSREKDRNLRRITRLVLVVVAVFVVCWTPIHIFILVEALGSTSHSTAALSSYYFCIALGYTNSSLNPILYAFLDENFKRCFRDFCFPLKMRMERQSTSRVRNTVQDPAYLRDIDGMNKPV
smiles,measurement,setting,value
"COC(=O)C1CC(OC(=O)C(C)Cl)C(=O)C2C1(C)CCC1C(=O)OC(c3ccoc3)CC12C (single isomer, unassigned) [RB-55-1, (22-S)-22-Chloro-22-methylsalvinorin A]",Relative Emax,KOR [1],99 +/− 12%
same,EC50,KOR [1],160 nM
same,Ki,KOR [2],30 ± 15 nM
same,Ki,KOR [3],269 ± 48 nM
"COC(=O)C1CC(OC(=O)C(C)Cl)C(=O)C2C1(C)CCC1C(=O)OC(c3ccoc3)CC12C (single isomer, unassigned) [RB-55-2, (22-R)-22-Chloro-22-methylsalvinorin A]",Relative Emax,KOR [1],98 +/− 8%
same,EC50,KOR [1],273 nM
same,Ki,KOR [2],58 ± 32 nM
same,Ki,KOR [3],> 3000 nM
"Oc1ccc2c3c1O[C@H]1c4[nH]c5c(c4C[C@@]4(O)[C@@H](C2)N(CC2CC2)CC[C@]314)C[C@@]1(O)[C@H]2Cc3ccc(O)c4c3[C@@]1(CCN2CC1CC1)[C@H]5O4 [Nor-BNI, nor-binaltorphimine, reference compound]",antagonism of agonist-induced disruption of PPI,"C57BL/6J mice; mouse, in vivo",antagonized salvinorin A and RB-64-induced disruption of PPI
"COC(=O)[C@@H]1C[C@H](OC(=O)CCl)C(=O)[C@H]2[C@@]1(C)CC[C@H]1C(=O)O[C@H](c3ccoc3)C[C@]21C [RB-48, 22-Chlorosalvinorin A]",Relative Emax,KOR [1],85 ± 3%
same,EC50,KOR [1],0.19 ± 0.01 nM
same,wash-resistant inhibition of binding (preliminary studies),KOR [4],resulted in wash-resistant inhibition of binding
same,Ki,KOR [2],2.1 ± 0.8 nM
same,Ki,KOR [3],32 ± 15 nM
"COC(=O)[C@@H]1C[C@H](OC(=O)CBr)C(=O)[C@H]2[C@@]1(C)CC[C@H]1C(=O)O[C@H](c3ccoc3)C[C@]21C [RB-50, 22-Bromosalvinorin A]",Relative Emax,KOR [1],76 +/− 7%
same,EC50,KOR [1],11 nM
same,stability on storage,[5],highly unstable at room temperature
same,"irreversible inhibition of binding, tested as potential affinity ligand",KOR [4],none showed significant irreversible inhibition of binding
same,Ki,KOR [2],1.5 ± 0.22 nM
same,Ki,KOR [3],39.6 ± 11.6 nM
"COC(=O)C1CC(OC(=O)C(C)Cl)C(=O)C2C1(C)CCC1C(=O)OC(c3ccoc3)CC12C [RB-55, (22-R,S)-22-Chloro-22-methylsalvinorin A]",Relative Emax,KOR [1],83 +/− 10%
same,EC50,KOR [1],35 nM
same,Ki,KOR [2],21 ± 3 nM
same,Ki,KOR [3],189 ± 70.1 nM
"COC(=O)[C@@H]1C[C@H](OC(=O)CSC#N)C(=O)[C@H]2[C@@]1(C)CC[C@H]1C(=O)O[C@H](c3ccoc3)C[C@]21C [RB-64, 22-Thiocyanatosalvinorin A]",Emax,KOR [1]; read-out: Relative Emax,95 ± 2%
same,stability on storage,[5],stable compound and may be stored for prolonged time without decomposition
same,maximum of KOR labeled,KOR [4],59%
same,wash-resistant inhibition of KOR binding,KOR [4],82%
same,EC50,KOR [4]; EC50 for wash-resistant inhibition of binding,9000 nM
same,Null Activity (mAmp displacement),"C57BL/6J mice; 0.005 mg/kg i.p., mice",8.22 ± 3.73 mAmp displacement
same,PPI responses to the 12- and 16-dB prepulses,"C57BL/6J mice; 0.005 mg/kg, p < 0.010",depressed responses
same,Null Activity (mAmp displacement),"C57BL/6J mice; 0.01 mg/kg i.p., mice",16.81 ± 4.4 mAmp displacement
same,Null Activity (mAmp displacement),"C57BL/6J mice; 0.05 mg/kg i.p., mice",64.89 ± 10.88 mAmp displacement
same,PPI responses to the 12- and 16-dB prepulses,"C57BL/6J mice; 0.05 mg/kg, p < 0.052",increased the responses
same,Null Activity (mAmp displacement),"C57BL/6J mice; 0.1 mg/kg i.p., mice",51.6 ± 12.16 mAmp displacement
same,overall PPI (overall inhibition) vs vehicle,"C57BL/6J mice; 0.1 mg/kg i.p., p < 0.046",significant reduction in overall inhibition
same,PPI to the 4 dB prepulse vs vehicle,"C57BL/6J mice; 0.005, 0.01, or 0.05 mg/kg, p < 0.047",enhanced relative to vehicle
same,overall PPI (overall inhibition) vs vehicle,"C57BL/6J mice; 0.01 and 0.05 mg/kg i.p., p < 0.021",marked increases in overall inhibition
same,PPI to the 8-dB prepulse vs vehicle,"C57BL/6J mice; 0.01 and 0.05 mg/kg, p < 0.031",increased PPI to the 8-dB prepulse
same,baseline startle activity,C57BL/6J mice,dose-dependent parabolic changes in baseline startle activity
same,prepulse-dependent PPI,C57BL/6J mice,disrupted prepulse-dependent PPI at all prepulse intensities
same,PPI responses to the 12- and 16-dB prepulses vs vehicle,"C57BL/6J mice; highest dose (0.1 mg/kg), p < 0.003",significantly depressed compared to the vehicle control
same,in vivo efficacy relative to salvinorin A,"C57BL/6J mice; in vivo studies (PPI), mice",20 fold
same,"null activity, in words","C57BL/6J mice; two highest doses (0.05, 0.1 mg/kg), compared to vehicle, p < 0.001",increased activity
same,"null activity, in words","C57BL/6J mice; two lower doses (0.005, 0.01 mg/kg)",little effect on null activity
"COCC(=O)O[C@H]1C[C@@H](C(=O)OC)[C@]2(C)CC[C@H]3C(=O)O[C@H](c4ccoc4)C[C@]3(C)[C@H]2C1=O [RB-65, 22-Methoxysalvinorin A]",Relative Emax,KOR [1],99 +/− 11%
same,EC50,KOR [1],67 nM
same,Ki,KOR [2],5.7 ± 1.2 nM
same,Ki,KOR [3],431 ± 54.1 nM
"COC(=O)C1CC(OC(=O)C(Cl)Cl)C(=O)C2C1(C)CCC1C(=O)OC(c3ccoc3)CC12C (stereo not shown) [RB-66, 22,22-Dichlorosalvinorin A]",Relative Emax,KOR [1],103 +/− 14%
same,EC50,KOR [1],1680 nM
same,Ki,KOR [2],911 ± 170 nM
same,Ki,KOR [3],> 10000 nM
"COC(=O)[C@@H]1C[C@H](OC(C)=O)C(=O)[C@H]2[C@@]1(C)CC[C@H]1C(=O)O[C@H](c3ccoc3)C[C@]21C [Salvinorin A, reference compound]",effect on radioligand binding after incubation and washing (controls),KOR [4],did not substantially alter radioligand binding
same,Null Activity (mAmp displacement),"C57BL/6J mice; 0.25 mg/kg i.p., mice",19.44 ± 5.83 mAmp displacement
same,Null Activity (mAmp displacement),"C57BL/6J mice; 0.5 mg/kg i.p., mice",28.79 ± 3.99 mAmp displacement
same,"null activity, in words","C57BL/6J mice; 0.5 mg/kg, compared to all other doses and vehicle, p < 0.001",significant increases in null activity
same,Null Activity (mAmp displacement),"C57BL/6J mice; 1.0 mg/kg i.p., mice",13.63 ± 3.65 mAmp displacement
same,"PPI at the 8-, 12-, and 16-dB prepulses vs vehicle",C57BL/6J mice; 2 mg/kg,marked reductions in PPI
same,PPI responses to 4 dB prepulse vs vehicle,C57BL/6J mice; 2 mg/kg,unchanged from the vehicle control
same,Null Activity (mAmp displacement),"C57BL/6J mice; 2.0 mg/kg i.p., mice",13.76 ± 3.65 mAmp displacement
same,overall PPI (overall inhibition) vs vehicle,"C57BL/6J mice; 2 mg/kg i.p., p < 0.044",significantly suppressed inhibition
same,PPI responses at the 8- and 12-dB prepulses vs vehicle,"C57BL/6J mice; 0.25, 0.5, or 1 mg/kg",similar
same,overall PPI (overall inhibition) vs vehicle,"C57BL/6J mice; 0.25, 0.5, or 1 mg/kg i.p.",similar
same,PPI to the 4-dB prepulse vs vehicle,"C57BL/6J mice; 0.25, 0.5 or 1 mg/kg, p < 0.051",increased PPI to the 4-dB prepulse
same,baseline startle activity,C57BL/6J mice,dose-dependent parabolic changes in baseline startle activity
same,prepulse-dependent PPI,C57BL/6J mice,disrupted prepulse-dependent PPI at all prepulse intensities
